pIC50: −log10 of the molar value. Where a name gives a salt, the structure may show the parent alone. Read-outs that look alike come from different tables or passages of the source.
Tested on: influenza virus A/WSN RG#1-1 strains
Experiment: microbe, parasite or virus in culture
Type: cell-based
Settings: for pIC50: unidentified influenza virus, WSN, read-out: IC50 (50% virus replication inhibitory concentration)

Compound	pIC50 (A549, 48 h)	pIC50 (HEK293, 48 h)	IC50 (50% virus replication inhibitory concentration)	also measured
N#C/C(=C\c1ccc(O)c(O)c1)C(=O)NCc1ccccc1 [Compound J4, (E)-N-benzyl-2-cyano-3-(3,4-dihydroxyphenyl)acrylamide]	4.50	–	–	–
O=C(Nc1c[nH]nc1-c1nc2cc(CN3CCOCC3)ccc2[nH]1)NC1CC1 [Compound J7, 1-cyclopropyl-3-(3-(5-(morpholinomethyl)-1H-benzo[d]imidazol-2-yl)-1H-pyrazol-4-yl) urea]	5.50	–	–	–
N#CCNC(=O)c1ccc(-c2ccnc(Nc3ccc(N4CCOCC4)cc3)n2)cc1 [Compound J8, N-(cyanomethyl)-4-(2-(4-morpholinophenylamino)pyrimidin-4-yl)benzamide]	–	4.50	–	–
CN1CCN(c2cccc(Nc3nc4c(-c5ccc(S(C)(=O)=O)cc5)cccn4n3)c2)CC1 [Compound J11]	–	–	3.50 log10, nM	–
Fc1cc(-c2cccc3ncc(-c4cnn(C5CCNCC5)c4)nc23)cc(F)c1CN1CCOCC1 [Compound J13, 8-(3,5-difluoro-4-(morpholinomethyl)phenyl)-2-(1-(piperidin-4-yl)-1H-pyrazol-4-yl)qui noxaline]	–	–	3.17 log10, nM	–
CC(C)N(CCC(=O)c1ccc2ccccc2c1)Cc1ccccc1 [Compound J15, 1-propanone, 3-[(1-methylethyl)(phenylmethyl)amino]-1-(2-naphthalenyl)-, hydrochloride (1:1)]	–	6.50	–	–
O=C(Nc1nc2cccc(-c3ccc(CN4CCS(=O)(=O)CC4)cc3)n2n1)C1CC1 [Compound J19, N-[5-[4-[(1,1-dioxido-4-thiomorpholinyl)methyl]phenyl][1,2,4]triazolo[1,5-a]pyridin-2-yl]cyclopropanccarboxamidc]	4.50	4.50	–	pIC50 (MDCK, 48 h): 4.50
COc1cc2ncnc(Nc3ccc(O)cc3)c2cc1OC [Compound J20, 4-[(6,7-dimethoxy-4-quinazolinyl)amino]-phenol]	–	4.50	–	–
Cl.Cl.Fc1cc(-c2cccc3ncc(-c4cnn(C5CCNCC5)c4)nc23)cc(F)c1CN1CCOCC1 [Compound J21, 4-[[2,6-difluoro-4-[3-(1-piperidin-4-ylpyrazol-4-yl)quinoxalin-5-yl]phenyl]methyl]morpholine; dihydrochloride]	–	–	3.50 log10, nM	–
CN1C/C=C/CCOc2cccc(c2)-c2ccnc(n2)Nc2cccc(c2)C1 [Compound J23, 20-oxa-5,7,14,27-tetraazatetracyclo[19.3.1.12,6.18, 12]heptacosa-1(25),2,4,6(27),8,10,12(26),16,21,23-decane,14-methyl-]	7.50	7.50	–	pIC50 (MDCK, 48 h): 7.50
CCC[C@H](NC(=O)/C(C#N)=C/c1cccc(Br)n1)c1ccccc1 [Compound J25, (2E)-3-(6-bromo-2-pyridinyl)-2-cyano-N-[1S-phenylbutyl]-2-propenamide]	–	–	2.50 log10, nM	–

Reference: patent US20170290821A1 (priority 2014, published 2017)
